Data as given in US9708314B2, “Heterocyclic amide compound” (NISSAN CHEMICAL INDUSTRIES, LTD., priority 2013, dated 2017).

What was measured:
Type in all cases: in vivo
[1] = test system: Avena fatua; assay: Test Example 4: herbicidal effect by application to foliage (diluvial soil, plastic box); conditions: application to foliage, 320 g/ha
Summary of the method: (§1)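 Greenhouse plants (25° C. to 30° C., 14 d, diluvial soil) receive a foliar spray of water-diluted emulsifiable formulation at defined g/ha. Grading after 3 weeks uses a six-step herbicidal-ratio scale, with 4 covering 70% to <90% and 1 covering 5% to <20%.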

[2] = test system: Veronica persica; assay: as above; conditions: application to foliage, 320 g/ha
Summary of the method: as §1

[3] = test system: Abutilon theophrasti; assay: as above; conditions: application to foliage, 320 g/ha
Summary of the method: as §1

[4] = test system: Lolium multiflorum Lam.; assay: as above; conditions: application to foliage, 320 g/ha
Summary of the method: as §1

[5] = test system: Amaranthus retroflexus; assay: as above; conditions: application to foliage, 320 g/ha
Summary of the method: as §1

[6] = test system: Setaria viridis; assay: as above; conditions: application to foliage, 320 g/ha
Summary of the method: as §1

[7] = test system: Digitaria ciliaris; assay: as above; conditions: application to foliage, 320 g/ha
Summary of the method: as §1

[8] = test system: Chenopodium album; assay: as above; conditions: application to foliage, 320 g/ha
Summary of the method: as §1

[9] = test system: Stellaria media; assay: as above; conditions: application to foliage, 320 g/ha
Summary of the method: as §1

[10] = test system: Echinochloa crus-galli var. crus-galli; assay: as above; conditions: application to foliage, 320 g/ha
Summary of the method: as §1

[11] = test system: Apera spica-venti.; assay: as above; conditions: application to foliage, 320 g/ha
Summary of the method: as §1

[12] = test system: Alopecurus myosuroides; assay: as above; conditions: application to foliage, 320 g/ha
Summary of the method: as §1

[13] = test system: Galium spurium; assay: as above; conditions: application to foliage, 320 g/ha
Summary of the method: as §1

[14] = test system: Zea mays; assay: Test Example 4: effect on crop by application to foliage (diluvial soil, plastic box); conditions: application to foliage, 320 g/ha
Summary of the method: as §1

[15] = test system: Brassica campestris L.; assay: as above; conditions: application to foliage, 320 g/ha
Summary of the method: as §1

[16] = test system: Glycine max; assay: as above; conditions: application to foliage, 320 g/ha
Summary of the method: as §1

[17] = test system: directly sowed Oryza sativa; assay: as above; conditions: application to foliage, 320 g/ha
Summary of the method: as §1

[18] = test system: Triticum aestivum; assay: as above; conditions: application to foliage, 320 g/ha
Summary of the method: as §1

[19] = test system: Beta vulgaris ssp. vulgaris; assay: as above; conditions: application to foliage, 320 g/ha
Summary of the method: as §1

[20] = test system: Monochoria vaginalis; assay: Test Example 2: herbicidal activity, application during weed generation in submerged conditions; conditions: Eighteenth Table; application herbicide amount 320 g/ha
Summary of the method: (§2)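 Seeds were sown together in alluvial soil kept under 4 cm of water and grown at 25 °C to 30 °C. Once plants reached the one- to two-leaf stage, the diluted emulsion was applied to the water surface at a predetermined g/ha amount, and effects were rated 0–5 after three weeks.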

[21] = test system: Scirpus juncoides; assay: as above; conditions: Eighteenth Table; application herbicide amount 320 g/ha
Summary of the method: as §2

[22] = test system: Echinochloa oryzacola Vasing.; assay: as above; conditions: Eighteenth Table; application herbicide amount 320 g/ha
Summary of the method: as §2

SMILES	herbicidal effect, I (Avena fatua) [1]	herbicidal effect, R (Veronica persica) [2]	herbicidal effect, M (Abutilon theophrasti) [3]	herbicidal effect, K (Lolium multiflorum Lam.) [4]	herbicidal effect, N (Amaranthus retroflexus) [5]	herbicidal effect, G (Setaria viridis) [6]	herbicidal effect, F (Digitaria ciliaris) [7]	herbicidal effect, O (Chenopodium album) [8]	herbicidal effect, P (Stellaria media) [9]	herbicidal effect, H (Echinochloa crus-galli var. crus-galli) [10]	herbicidal effect, L (Apera spica-venti.) [11]	herbicidal effect, J (Alopecurus myosuroides) [12]	herbicidal effect, Q (Galium spurium) [13]	effect on crop, b (Zea mays) [14]	effect on crop, g (Brassica campestris L.) [15]	effect on crop, c (Glycine max) [16]	effect on crop, d (directly sowed Oryza sativa) [17]	effect on crop, e (Triticum aestivum) [18]	effect on crop, f (Beta vulgaris ssp. vulgaris) [19]	C (Monochoria vaginalis) herbicidal ratio grade [20]	other results
Cn1nnnc1NC(=O)c1ccc(C(F)(F)F)n2c(=O)n(C)nc12 [6-002]	1 (Herbicidal ratio of 5% or more and less than 20%)	4 (Herbicidal ratio of 70% or more and less than 90%)	5 (Herbicidal ratio of 90% or more (almost completely withered))	0 (Herbicidal ratio of 5% or less (almost no effect))	5 (Herbicidal ratio of 90% or more (almost completely withered))	3 (Herbicidal ratio of 40% or more and less than 70%)	4 (Herbicidal ratio of 70% or more and less than 90%)	5 (Herbicidal ratio of 90% or more (almost completely withered))	5 (Herbicidal ratio of 90% or more (almost completely withered))	5 (Herbicidal ratio of 90% or more (almost completely withered))	0 (Herbicidal ratio of 5% or less (almost no effect))	0 (Herbicidal ratio of 5% or less (almost no effect))	3 (Herbicidal ratio of 40% or more and less than 70%)	0 (Herbicidal ratio of 5% or less (almost no effect))	3 (Herbicidal ratio of 40% or more and less than 70%)	0 (Herbicidal ratio of 5% or less (almost no effect))	3 (Herbicidal ratio of 40% or more and less than 70%)	0 (Herbicidal ratio of 5% or less (almost no effect))	3 (Herbicidal ratio of 40% or more and less than 70%)	3 (Herbicidal ratio of 40% or more and less than 70%)	B (Scirpus juncoides) herbicidal ratio grade [21]: 2 (Herbicidal ratio of 20% or more and less than 40%); A (Echinochloa oryzicola Vasing.) herbicidal ratio grade [22]: 3 (Herbicidal ratio of 40% or more and less than 70%)
CCn1nc2c(C(=O)Nc3nnnn3C)ccc(C(F)(F)F)n2c1=O [6-004]	3 (Herbicidal ratio of 40% or more and less than 70%)	3 (Herbicidal ratio of 40% or more and less than 70%)	5 (Herbicidal ratio of 90% or more (almost completely withered))	2 (Herbicidal ratio of 20% or more and less than 40%)	5 (Herbicidal ratio of 90% or more (almost completely withered))	4 (Herbicidal ratio of 70% or more and less than 90%)	5 (Herbicidal ratio of 90% or more (almost completely withered))	5 (Herbicidal ratio of 90% or more (almost completely withered))	4 (Herbicidal ratio of 70% or more and less than 90%)	5 (Herbicidal ratio of 90% or more (almost completely withered))	1 (Herbicidal ratio of 5% or more and less than 20%)	1 (Herbicidal ratio of 5% or more and less than 20%)	4 (Herbicidal ratio of 70% or more and less than 90%)	0 (Herbicidal ratio of 5% or less (almost no effect))	3 (Herbicidal ratio of 40% or more and less than 70%)	0 (Herbicidal ratio of 5% or less (almost no effect))	4 (Herbicidal ratio of 70% or more and less than 90%)	1 (Herbicidal ratio of 5% or more and less than 20%)	2 (Herbicidal ratio of 20% or more and less than 40%)	2 (Herbicidal ratio of 20% or more and less than 40%)	B (Scirpus juncoides) herbicidal ratio grade [21]: 0 (Herbicidal ratio of 5% or less (almost no effect)); A (Echinochloa oryzicola Vasing.) herbicidal ratio grade [22]: 3 (Herbicidal ratio of 40% or more and less than 70%)
CC(C)c1nc2c(C(=O)Nc3nnnn3C)ccc(C(F)(F)F)n2n1 [7-002]	1 (Herbicidal ratio of 5% or more and less than 20%)	3 (Herbicidal ratio of 40% or more and less than 70%)	3 (Herbicidal ratio of 40% or more and less than 70%)	0 (Herbicidal ratio of 5% or less (almost no effect))	4 (Herbicidal ratio of 70% or more and less than 90%)	2 (Herbicidal ratio of 20% or more and less than 40%)	3 (Herbicidal ratio of 40% or more and less than 70%)	5 (Herbicidal ratio of 90% or more (almost completely withered))	4 (Herbicidal ratio of 70% or more and less than 90%)	4 (Herbicidal ratio of 70% or more and less than 90%)	0 (Herbicidal ratio of 5% or less (almost no effect))	0 (Herbicidal ratio of 5% or less (almost no effect))	3 (Herbicidal ratio of 40% or more and less than 70%)	0 (Herbicidal ratio of 5% or less (almost no effect))	3 (Herbicidal ratio of 40% or more and less than 70%)	0 (Herbicidal ratio of 5% or less (almost no effect))	2 (Herbicidal ratio of 20% or more and less than 40%)	0 (Herbicidal ratio of 5% or less (almost no effect))	4 (Herbicidal ratio of 70% or more and less than 90%)	2 (Herbicidal ratio of 20% or more and less than 40%)	B (Scirpus juncoides) herbicidal ratio grade [21]: 2 (Herbicidal ratio of 20% or more and less than 40%); A (Echinochloa oryzicola Vasing.) herbicidal ratio grade [22]: 4 (Herbicidal ratio of 70% or more and less than 90%)
